Measured values as given in patent US20070112043A1, “Acylated and non-acylated imidazo[2,1-b]-1,3,4,-thiadiazole-2-sulfonamides, and uses thereof” (priority 2003, published 2007).
Converted amounts (≈) assume the structure as drawn.

How the values were obtained:
[1] = Microsomal stability; type: in vitro ADME; details: 1 hr
[2] = test system: SCG neurons; details: Taxol induced cell death; read-out: Taxol SCG IC50; cited from earlier work
[3] = test system: Du145 (prostate); test: Clonogenic assay Du145; type: cell-based; details: compound 24 hours, colonies counted after 7-10 days, read-out: ED50 (the source's name)
Method: (§1) In this paradigm, Du145 prostate, HCT116 colon, 15N Neuroblastoma, IMR32 Neuroblastoma, Daoy Medulloblastoma, and MDAMB231 breast cells are individually plated and allowed to proliferate for 48 hours. Compound is added to the culture and left on for 24 hours, at which time both compound and dead cells are washed off the plate. Fresh media is added and the cells are allowed to grow for an additional 7-10 days. The remaining healthy cells reproduce and formed localized colonies. These colonies are counted and EC50 values are determined relative to non-treated controls.
(§2) Du145 prostate, HCT116 colon, 15N Neuroblastoma, IMR32 Neuroblastoma, Daoy Medulloblastoma, and MDAMB231 breast cells were plated in 6 well plates and allowed to grow for 5 days._Cells were exposed to compound for 24 hours, the culture media was removed and replaced with fresh media. The cells were kept in cultured for 7-10 days after which colonies were counted and EC50 values were determined relative to non-treated controls.

[4] = test system: 15N neuroblastoma cells; test: Alamar blue viability assay, 15N neuroblastoma; type: cell-based; details: cellular viability after 48 hours; compound dissolved in DMSO
Method: In order to investigate the anti-cancer potential of compounds represented by formula I-a, 15N neuroblastoma cells lines were treated with compound and assayed for cellular viability after 48 hours. The cellular viability of 15N neuroblastomas treated with compounds 1, 5, 6, 11, and 13 (dissolved in DMSO) are summarized in Table 5 (see Compound 152).
Compounds were tested for anti-cancer properties using the Alamar blue viability assay. Daoy human medulloblastoma cells of 15N neuroblastoma cells were plated at a density of 5000 cells per well of a 96 well plate and cultured in RPMI media supplemented with antibiotics and 5% fetal bovine serum. Cells in culture were incubated with compound for 48 hours after which time Alamar blue was added to the culture media. After 4 hours media was transferred to opaque white plates and fluorescence of transformed alamar blue was measured at excitation 535/emission 595).

[5] = test system: motor neurons found in layer V of the cortex; details: drug concentration 1 μM; malonate; P1 rat motor cortex slices; cited from earlier work
[6] = test system: IMR32 (neuroblastoma); test: Clonogenic assay IMR32; type: cell-based; details: compound 24 hours, colonies counted after 7-10 days, read-out: ED50 (the source's name)
Method: as §1, §2

[7] = log P; type: physicochemical
[8] = pH of formulation; type: physicochemical; details: PBS/HPCD (25:75) solution
From the text: (§3) This is illustrated for compound 15 in Table 7.

[9] = Conversion to primary sulfonamide in liver microsomes; type: in vitro ADME; details: after 60 minutes
Method: (§4) Compound 15 is converted to compound 1 in the presence of liver microsomes using the procedure described by Cresteil, T., et al. (Cresteil, T., et al. Am. Soc. Pharm. Exper. Therapeutics, 2002, 30, 438-445). Upwards of 50% conversion is observed after 60 minutes. When incubated with rat primary hepatocytes, the conversion of compounds 15, 37, and 44 to their respective primary sulfonamides, 1, 11, and 13, is observed.

[10] = Solubility in water and formulations
Method: Alternatively, the sodium salt can be prepared in situ by dissolving the free acid in phosphate buffered saline (PBS) that has been buffered to a pH of 7.4. The solubility and stability of these solutions can be improved by the use of an aqueous soluble co-solvent such as, but not limited to HPCD. This solubility can be further improved by the addition of surfactants such as PEG 400. In general, the free acid is suspended in 10 wt/vol % HPDC (10 g dissolved in 100 mL water) and treated with 0.5M PBS (pH 7.4) such that the volumes are in a ratio of 75:25.

[11] = Pharmacokinetics and in vivo conversion of N-acylsulfonamides in rats (SC); design: species or system rat; details: subcutaneously, 10 mg/mL
Method: When administered to rats subcutaneously, compound 15 (10 mg/mL) is well distributed (Cmax=20 μg/mL in plasma). Conversion of compound 15 to 1 is observed with plasma levels of 1 reaching a Cmax of 0.5-1 μg/mL. Conversion of compound 16 to compound 1 is observed with plasma levels of 1 reaching a Cmax of 3 μg/mL Similar in vivo conversion is observed for select compounds listed in table 5 with whole blood drug concentrations being similar to that of their respective primary sulfonamide sodium salts, represented by formula I-a, administered at the same dose in aqueous 10 wt/vol % HPCD.

[12] = Conversion to primary sulfonamide in rat primary hepatocytes; type: in vitro ADME; details: 90 minutes
Method: as §4

[13] = Stability of solutions/formulations; type: physicochemical
From the text: as §3

[14] = 250 μL 0.5 M PBS + 250 μL 10% HPCD + 500 μL 20% PEG 400

Row | Structure (SMILES) | Microsomal Stability (1 hr) [1] [%] | IC50 [2] [µM] | EC50 [3] [µM] | IC50 [4] [µM] | protection of SMI-32 labeled motor neurons [5] [%] | EC50 [6] [µM] | log P [7] | pH [8] | conversion to compound 1 [9] [%] | dissolution ([10]; 25 mg in 1 mL PEG 400/ethanol (50:50) + ethanolamine (20 μL)) | clear solution concentration ([10]; 10 wt/vol % HPCD + 1 equiv of ethanolamine, dimethylaminoethanol or 4-aminopyridine) [mg/mL] | solubility [10, 14] [µg/mL] | solubility ([10]; 250 μL 0.5 M PBS + 750 μL 10% HPCD) [µg/mL] | Solubility in 10 wt/vol HPCD ([10]; PBS/HPCD (25:75) solution) [µg/mL] | Cmax in plasma [11] [ng/mL] | conversion rate to primary sulfonamide [12] [%] | Stability [13, 14] [weeks] | Stability ([13]; 1000 μL 0.5 M PBS) [days] | Stability in 10 wt/vol HPCD ([13]; PBS/HPCD (25:75) solution) [weeks]
1 | NS(=O)(=O)c1nn2cc(-c3ccc(Oc4ccc(Cl)cc4)cc3)nc2s1 [Compound 13] | 85 | 3 | 8 | 10 | > 80 | 0.75 | – | – | – | – | – | – | – | – | – | – | – | – | –
2 | CC(=O)NS(=O)(=O)c1nn2cc(-c3ccccc3)nc2s1 [Compound 15] | – | – | – | – | – | – | 2.6 | 7.4 | > 50 | clear solution | 5 to 10 | 25000 | 10000 | 10000 (≈ 31 mM) | 20000 | 6 | >4 | 1 to 2 | >4
